pKi: −log10 of the molar value. Active and inactive are the calls of the source. No cut-off for these calls is given here. Positions of bridges follow the written chain, without caps; N, C: chain ends. Non-standard residues stand in square brackets, D forms with d. Residues, ends and D or L forms follow the SMILES beside them. dPhe(4-Cl) = N[C@H](Cc1ccc(Cl)cc1)C(=O)O; d2Nal = N[C@H](Cc1ccc2ccccc2c1)C(=O)O; d3Pal = N[C@H](Cc1cccnc1)C(=O)O; Dab = NCC[C@H](N)C(=O)O; Dap = NC[C@H](N)C(=O)O

Experiment [1] has as its target T1, Gonadotropin-releasing hormone receptor (Rattus norvegicus, UniProt P30969).
T1 sequence (P30969 whole entry): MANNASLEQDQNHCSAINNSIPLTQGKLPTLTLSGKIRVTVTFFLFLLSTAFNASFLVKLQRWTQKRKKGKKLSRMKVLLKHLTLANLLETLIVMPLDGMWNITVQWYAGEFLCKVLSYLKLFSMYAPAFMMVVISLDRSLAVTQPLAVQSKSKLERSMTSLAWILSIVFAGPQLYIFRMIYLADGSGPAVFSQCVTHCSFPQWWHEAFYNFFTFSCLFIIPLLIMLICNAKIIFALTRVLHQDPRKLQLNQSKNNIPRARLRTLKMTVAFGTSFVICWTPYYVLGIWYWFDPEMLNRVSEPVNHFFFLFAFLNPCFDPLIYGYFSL
Nature of the experiment: Competitive radioligand binding assay, in human HEK293 cells stably transfected with the rat Gonadotropin-releasing hormone receptor. In kind it is cell-based.

The test system of experiment [2] is Rattus norvegicus. Nature of the experiment: Evaluated for the ovulation effects in the rat by administering the drug at the doses (10 ug); 4/6. Type of experiment: functional, organism-based.
The test system of experiment [3] is Rattus norvegicus. As to the kind of experiment: Evaluated for the ovulation effects in the rat by administering the drug at the doses (5 ug); 3/3. In kind it is functional, organism-based.
Experiment [4] relates to Rattus norvegicus. Nature of the experiment: Evaluated for the ovulation effects in the rat by administering the drug at the doses (25 ug); 0/5. Type of experiment: functional, organism-based.
The subject of experiment [5] is Rattus norvegicus. As to the kind of experiment: Evaluated for the ovulation effects in the rat by administering the drug at the doses (10 ug); 5/5. Type of experiment: functional, organism-based.
Experiment [6] deals with Rattus norvegicus. Nature of the experiment: Evaluated for the ovulation effects in the rat by administering the drug at the doses (25 ug); 0/4. Type of experiment: functional, organism-based.
Experiment [7] has as its system Rattus norvegicus. Nature of the experiment: Evaluated for the ovulation effects in the rat by administering the drug at the doses (25 ug); 0/8. In kind it is functional, organism-based.
For experiment [8], the system named is Rattus norvegicus. As to the kind of experiment: Evaluated for the ovulation effects in the rat by administering the drug at the doses (2.5 ug); 14/16. Type of experiment: functional, organism-based.
Experiment [9] has as its system Rattus norvegicus. Nature of the experiment: Evaluated for the ovulation effects in the rat by administering the drug at the doses (10 ug); 1/6. In kind it is functional, organism-based.
Experiment [10] has as its system Rattus norvegicus. As to the kind of experiment: Evaluated for the ovulation effects in the rat by administering the drug at the doses (25 ug); 0/3. In kind it is functional, organism-based.
For experiment [11], the system named is Rattus norvegicus. Nature of the experiment: Evaluated for the ovulation effects in the rat by administering the drug at the doses (500 ug); 3/8. Type of experiment: functional, organism-based.
In experiment [12] the test system is Rattus norvegicus. As to the kind of experiment: Evaluated for the ovulation effects in the rat by administering the drug at the doses (100 ug); 5/5. Type of experiment: functional, organism-based.
For experiment [13], the system named is Rattus norvegicus. Nature of the experiment: Evaluated for the ovulation effects in the rat by administering the drug at the doses (25 ug); 4/5. In kind it is functional, organism-based.
Experiment [14] concerns Rattus norvegicus. Nature of the experiment: Evaluated for the ovulation effects in the rat by administering the drug at the doses (50 ug); 0/7. In kind it is functional, organism-based.

A word on the pKi: it is the negative decadic logarithm of the Ki, by convention in mol/L. Read a high pKi as a low Ki. As for `CC(=O)N[C@H](Cc1ccc2ccccc2c1)C(=O)N[C@H](Cc1ccc(Cl)cc1)C(=O)N[C@H](Cc1cccnc1)C(=O)N[C@H]1CC(=O)NC[C@@H](C(N)=O)NC(=O)[C@@H]2CCCN2C(=O)[C@@H]2CCNC(=O)CNC(=O)C[C@H](NC1=O)C(=O)N[C@H](CCCN=C(N)N)C(=O)N[C@@H](CC(C)C)C(=O)N2`, the pKi in [1] is 9.46. In the experiment with Rattus norvegicus [2], the Activity result is “Weak activity”. Further, the result in the experiment on Rattus norvegicus [3] was inactive. Further, the result in the experiment on Rattus norvegicus [4] was Active.

`CC(=O)N[C@H](Cc1ccc2ccccc2c1)C(=O)N[C@H](Cc1ccc(Cl)cc1)C(=O)N[C@H](Cc1cccnc1)C(=O)N[C@H]1CC(=O)NC[C@@H](C(N)=O)NC(=O)[C@@H]2CCCN2C(=O)[C@@H]2CCNC(=O)[C@H](Cc3ccccc3)NC(=O)CC[C@H](NC1=O)C(=O)N[C@H](CCCNC(N)=O)C(=O)N[C@@H](CC(C)C)C(=O)N2` had a pKi in experiment [1] of 9.70. The result with Rattus norvegicus [5] was inactive. In addition, in the experiment on Rattus norvegicus [6], the outcome was Active.

`CC(=O)N[C@H](Cc1ccc2ccccc2c1)C(=O)N[C@H](Cc1ccc(Cl)cc1)C(=O)N[C@H](Cc1cccnc1)C(=O)N[C@H]1CC(=O)NC[C@@H](C(N)=O)NC(=O)[C@@H]2CCCN2C(=O)[C@@H]2CCCNC(=O)[C@H](Cc3ccccc3)NC(=O)CC[C@H](NC1=O)C(=O)N[C@H](CCCN=C(N)N)C(=O)N[C@@H](CC(C)C)C(=O)N2` gave a pKi in experiment [1] of 9.57. In addition, the outcome in the experiment with Rattus norvegicus [5] was inactive. In addition, the outcome in the experiment on Rattus norvegicus [7] was Active.

`CC(=O)N[C@H](Cc1ccc2ccccc2c1)C(=O)N[C@H](Cc1ccc(Cl)cc1)C(=O)N[C@H](Cc1cccnc1)C(=O)N[C@H]1CC(=O)NC[C@@H](C(N)=O)NC(=O)[C@@H]2CCCN2C(=O)[C@@H]2CCNC(=O)CNC(=O)CC[C@H](NC1=O)C(=O)N[C@H](CCCN=C(N)N)C(=O)N[C@@H](CC(C)C)C(=O)N2` (Ac-[d2Nal][dPhe(4-Cl)][d3Pal]DE[dR]L[Dab]P[Dap]-NH2; lactam 4-10; linker 5-8 via G) had a pKi in [1] of 9.80. The Activity entry with Rattus norvegicus [8] and with Rattus norvegicus [9] was “Weak activity” each time. In addition, the outcome with Rattus norvegicus [10] was Active.

For `CC(=O)N[C@H](Cc1ccc2ccccc2c1)C(=O)N[C@H](Cc1ccc(Cl)cc1)C(=O)N[C@H](Cc1cccnc1)C(=O)N[C@H]1CC(=O)NC[C@@H](C(N)=O)NC(=O)[C@@H]2CCCN2C(=O)[C@@H]2CCNC(=O)[C@@H](Cc3ccccc3)NC(=O)CC[C@H](NC1=O)C(=O)N[C@H](CCCN=C(N)N)C(=O)N[C@@H](CC(C)C)C(=O)N2`, the pKi in experiment [1] was 6.92. In addition, in the experiment with Rattus norvegicus [11], the Activity entry is “Weak activity”. Further, in the experiment with Rattus norvegicus [12], the outcome was inactive.

Turning to `CC[C@H](NC(C)=O)C(=O)N[C@@H](Cc1ccc(Cl)cc1)C(=O)N[C@@H](Cc1c[nH]c2ccccc12)C(=O)N[C@@H](CC(=O)O)C(=O)N[C@@H]1CCC(=O)NCCCC[C@@H](C(=O)N2CCC[C@@H]2C(=O)N[C@@H](C)C(N)=O)NC(=O)[C@H](CC(C)C)NC(=O)[C@@H](CCCN=C(N)N)NC1=O` (stereo in doubt; 13), the Activity entry in the experiment on Rattus norvegicus [13] is “Weak activity”. Further, the outcome in the experiment with Rattus norvegicus [14] was Active.

The values above are taken from ChEMBL document CHEMBL1132957, “Design of potent dicyclic (4-10/5-8) gonadotropin releasing hormone (GnRH) antagonists” (J Med Chem, 2000).
